{
  "source": "patent US8192962B2",
  "about": "“Processes for detecting toxic substances” (Daikin Industries, Ltd., priority 2001, dated 2012)",
  "system": "Energy system protein genes",
  "assay": "DNA chip mRNA expression in yeast, energy system protein genes (Table 4)",
  "type": "cell-based, Saccharomyces cerevisiae S288C",
  "how_it_was_run": "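Cells were grown at 25° C. in YPD, treated at logarithmic phase for 2 h with a chemical at a concentration inhibiting growth but not causing death, and compared with untreated cultures. Labeled cDNA was hybridized to a DNA chip carrying all yeast genes, and the expression ratio was taken from scanner fluorescence.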",
  "data": [
    {"molecule": "[Cl][Cd][Cl]", "note": "[(2), CdCl2]", "values": [
      {"measurement": "The level of expressed mRNA in the presence of chemical substance/The level of expressed mRNA in the absence of chemical substance", "setting": "yeast gene YAL060W", "result": 1.8},
      {"measurement": "The level of expressed mRNA in the presence of chemical substance/The level of expressed mRNA in the absence of chemical substance", "setting": "yeast gene YBL058W, cells incubated two hours with the chemical substance", "result": 1.5},
      {"measurement": "The level of expressed mRNA in the presence of chemical substance/The level of expressed mRNA in the absence of chemical substance", "setting": "yeast gene YBL099W, cells incubated two hours with the chemical substance", "result": 0.9},
      {"measurement": "The level of expressed mRNA in the presence of chemical substance/The level of expressed mRNA in the absence of chemical substance", "setting": "yeast gene YBR001C, cells incubated two hours with the chemical substance", "result": 1.4},
      {"measurement": "The level of expressed mRNA in the presence of chemical substance/The level of expressed mRNA in the absence of chemical substance", "setting": "yeast gene YBR185C, cells incubated two hours with the chemical substance", "result": 1.0},
      {"measurement": "The level of expressed mRNA in the presence of chemical substance/The level of expressed mRNA in the absence of chemical substance", "setting": "yeast gene YBR221C, cells incubated two hours with the chemical substance", "result": 0.7},
      {"measurement": "The level of expressed mRNA in the presence of chemical substance/The level of expressed mRNA in the absence of chemical substance", "setting": "yeast gene YCL040W", "result": 5.6},
      {"measurement": "The level of expressed mRNA in the presence of chemical substance/The level of expressed mRNA in the absence of chemical substance", "setting": "yeast gene YCR012W", "result": 1.5},
      {"measurement": "The level of expressed mRNA in the presence of chemical substance/The level of expressed mRNA in the absence of chemical substance", "setting": "yeast gene YCR046C, cells incubated two hours with the chemical substance", "result": 1.2},
      {"measurement": "The level of expressed mRNA in the presence of chemical substance/The level of expressed mRNA in the absence of chemical substance", "setting": "yeast gene YCR105W, cells incubated two hours with the chemical substance", "result": 1.2},
      {"measurement": "The level of expressed mRNA in the presence of chemical substance/The level of expressed mRNA in the absence of chemical substance", "setting": "yeast gene YDL021W", "result": 1.7},
      {"measurement": "The level of expressed mRNA in the presence of chemical substance/The level of expressed mRNA in the absence of chemical substance", "setting": "yeast gene YDL067C, cells incubated two hours with the chemical substance", "result": 1.0},
      {"measurement": "The level of expressed mRNA in the presence of chemical substance/The level of expressed mRNA in the absence of chemical substance", "setting": "yeast gene YDL078C, cells incubated two hours with the chemical substance", "result": 1.1},
      {"measurement": "The level of expressed mRNA in the presence of chemical substance/The level of expressed mRNA in the absence of chemical substance", "setting": "yeast gene YDL107W, cells incubated two hours with the chemical substance", "result": 1.3},
      {"measurement": "The level of expressed mRNA in the presence of chemical substance/The level of expressed mRNA in the absence of chemical substance", "setting": "yeast gene YDL174C", "result": 1.8},
      {"measurement": "The level of expressed mRNA in the presence of chemical substance/The level of expressed mRNA in the absence of chemical substance", "setting": "yeast gene YDL181W, cells incubated two hours with the chemical substance", "result": 1.8},
      {"measurement": "The level of expressed mRNA in the presence of chemical substance/The level of expressed mRNA in the absence of chemical substance", "setting": "yeast gene YDR001C", "result": 2.2},
      {"measurement": "The level of expressed mRNA in the presence of chemical substance/The level of expressed mRNA in the absence of chemical substance", "setting": "yeast gene YDR050C, cells incubated two hours with the chemical substance", "result": 1.3},
      {"measurement": "The level of expressed mRNA in the presence of chemical substance/The level of expressed mRNA in the absence of chemical substance", "setting": "yeast gene YDR079W, cells incubated two hours with the chemical substance", "result": 1.1},
      {"measurement": "The level of expressed mRNA in the presence of chemical substance/The level of expressed mRNA in the absence of chemical substance", "setting": "yeast gene YDR178W, cells incubated two hours with the chemical substance", "result": 2.0},
      {"measurement": "The level of expressed mRNA in the presence of chemical substance/The level of expressed mRNA in the absence of chemical substance", "setting": "yeast gene YDR231C", "result": 1.6},
      {"measurement": "The level of expressed mRNA in the presence of chemical substance/The level of expressed mRNA in the absence of chemical substance", "setting": "yeast gene YDR298C, cells incubated two hours with the chemical substance", "result": 1.2},
      {"measurement": "The level of expressed mRNA in the presence of chemical substance/The level of expressed mRNA in the absence of chemical substance", "setting": "yeast gene YDR377W, cells incubated two hours with the chemical substance", "result": 1.1},
      {"measurement": "The level of expressed mRNA in the presence of chemical substance/The level of expressed mRNA in the absence of chemical substance", "setting": "yeast gene YDR529C, cells incubated two hours with the chemical substance", "result": 1.0},
      {"measurement": "The level of expressed mRNA in the presence of chemical substance/The level of expressed mRNA in the absence of chemical substance", "setting": "yeast gene YEL024W, cells incubated two hours with the chemical substance", "result": 0.9},
      {"measurement": "The level of expressed mRNA in the presence of chemical substance/The level of expressed mRNA in the absence of chemical substance", "setting": "yeast gene YEL039C, cells incubated two hours with the chemical substance", "result": 0.7},
      {"measurement": "The level of expressed mRNA in the presence of chemical substance/The level of expressed mRNA in the absence of chemical substance", "setting": "yeast gene YER178W", "result": 0.9},
      {"measurement": "The level of expressed mRNA in the presence of chemical substance/The level of expressed mRNA in the absence of chemical substance", "setting": "yeast gene YFL057C", "result": 5.9},
      {"measurement": "The level of expressed mRNA in the presence of chemical substance/The level of expressed mRNA in the absence of chemical substance", "setting": "yeast gene YFR053C", "result": 1.4},
      {"measurement": "The level of expressed mRNA in the presence of chemical substance/The level of expressed mRNA in the absence of chemical substance", "setting": "yeast gene YGL018C, cells incubated two hours with the chemical substance", "result": 1.0},
      {"measurement": "The level of expressed mRNA in the presence of chemical substance/The level of expressed mRNA in the absence of chemical substance", "setting": "yeast gene YGL062W", "result": 1.3},
      {"measurement": "The level of expressed mRNA in the presence of chemical substance/The level of expressed mRNA in the absence of chemical substance", "setting": "yeast gene YGL187C, cells incubated two hours with the chemical substance", "result": 0.8},
      {"measurement": "The level of expressed mRNA in the presence of chemical substance/The level of expressed mRNA in the absence of chemical substance", "setting": "yeast gene YGL191W, cells incubated two hours with the chemical substance", "result": 1.6},
      {"measurement": "The level of expressed mRNA in the presence of chemical substance/The level of expressed mRNA in the absence of chemical substance", "setting": "yeast gene YGL205W, cells incubated two hours with the chemical substance", "result": 0.9},
      {"measurement": "The level of expressed mRNA in the presence of chemical substance/The level of expressed mRNA in the absence of chemical substance", "setting": "yeast gene YGL256W, cells incubated two hours with the chemical substance", "result": 5.3},
      {"measurement": "The level of expressed mRNA in the presence of chemical substance/The level of expressed mRNA in the absence of chemical substance", "setting": "yeast gene YGR043C", "result": 3.7},
      {"measurement": "The level of expressed mRNA in the presence of chemical substance/The level of expressed mRNA in the absence of chemical substance", "setting": "yeast gene YGR062C, cells incubated two hours with the chemical substance, 25° C., YPD medium", "result": 1.0},
      {"measurement": "The level of expressed mRNA in the presence of chemical substance/The level of expressed mRNA in the absence of chemical substance", "setting": "yeast gene YGR087C, cells incubated two hours with the chemical substance", "result": 15.0},
      {"measurement": "The level of expressed mRNA in the presence of chemical substance/The level of expressed mRNA in the absence of chemical substance", "setting": "yeast gene YGR174C, cells incubated two hours with the chemical substance", "result": 1.6},
      {"measurement": "The level of expressed mRNA in the presence of chemical substance/The level of expressed mRNA in the absence of chemical substance", "setting": "yeast gene YGR192C", "result": 1.0},
      {"measurement": "The level of expressed mRNA in the presence of chemical substance/The level of expressed mRNA in the absence of chemical substance", "setting": "yeast gene YGR244C", "result": 1.2},
      {"measurement": "The level of expressed mRNA in the presence of chemical substance/The level of expressed mRNA in the absence of chemical substance", "setting": "yeast gene YGR254W", "result": 1.3},
      {"measurement": "The level of expressed mRNA in the presence of chemical substance/The level of expressed mRNA in the absence of chemical substance", "setting": "yeast gene YHR179W", "result": 2.3},
      {"measurement": "The level of expressed mRNA in the presence of chemical substance/The level of expressed mRNA in the absence of chemical substance", "setting": "yeast gene YIL160C", "result": 2.4},
      {"measurement": "The level of expressed mRNA in the presence of chemical substance/The level of expressed mRNA in the absence of chemical substance", "setting": "yeast gene YIR031C, cells incubated two hours with the chemical substance", "result": 1.6},
      {"measurement": "The level of expressed mRNA in the presence of chemical substance/The level of expressed mRNA in the absence of chemical substance", "setting": "yeast gene YJL052W", "result": 0.9},
      {"measurement": "The level of expressed mRNA in the presence of chemical substance/The level of expressed mRNA in the absence of chemical substance", "setting": "yeast gene YJL121C, cells incubated two hours with the chemical substance", "result": 0.5},
      {"measurement": "The level of expressed mRNA in the presence of chemical substance/The level of expressed mRNA in the absence of chemical substance", "setting": "yeast gene YJL166W, cells incubated two hours with the chemical substance", "result": 1.5},
      {"measurement": "The level of expressed mRNA in the presence of chemical substance/The level of expressed mRNA in the absence of chemical substance", "setting": "yeast gene YJL216C, cells incubated two hours with the chemical substance", "result": 4.7},
      {"measurement": "The level of expressed mRNA in the presence of chemical substance/The level of expressed mRNA in the absence of chemical substance", "setting": "yeast gene YJR009C", "result": 1.7}
    ]}
  ]
}
